Assay results published in US7973047B2, “Beta-Secretase modulators and methods of use” (Amgen Inc., priority 2010, dated 2011).

System: Aβ40 in conditioned medium of cells stably expressing Amyloid Precursor Protein (APP)
Test: BACE cell-based assay: Aβ40 in conditioned medium by sandwich ELISA
Settings: cell based assay data, Table 4; unit inferred; read-out: Cell Assay
Procedure, shortened: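 Aβ40 in conditioned medium was read by time-resolved fluorescence sandwich ELISA (capture pAb40, detection biotinylated 6E10, 4° C incubations). Compounds were applied for 24 h to cells stably expressing APP, at 10 doses from 100 or 10 μM top, 0.1% DMSO. IC50 derived from percent of control.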

| SMILES | IC50 [µM] |
| --- | --- |
| CC(=O)N[C@@H](Cc1cccc(F)c1)[C@H](O)CN[C@H]1CC2(CCC2)Oc2cc(F)c(-n3cccn3)cc21 [compound 807] | 0.489 |
| CC(=O)N[C@@H](Cc1ccc(F)cc1)[C@H](O)CN[C@H]1CC2(CCC2)Oc2cc(F)c(-n3cccn3)cc21 [compound 808] | 1.94 |
| CC(=O)N[C@@H](CC1CCC1)[C@H](O)CN[C@H]1CC2(CCC2)Oc2ncc(CC(C)(C)C)cc21 [compound 809, N-((1S,2R)-1-(cyclobutylmethyl)-3-(((4′S)-6′-(2,2-dimethylpropyl)-3′,4′-dihydrospiro[cyclobutane-1,2′-pyrano[2,3-b]pyridin]-4′-yl)amino)-2-hydroxypropyl)acetamide] | 0.0787 |
| CC(=O)N[C@@H](Cc1ccccc1Br)[C@H](O)CN[C@H]1CC2(CCC2)Oc2ncc(CC(C)(C)C)cc21 [compound 810] | 0.197 |
| CC(=O)N[C@@H](Cc1c(F)cc(F)cc1F)[C@H](O)CN[C@H]1CC2(CCC2)Oc2ncc(CC(C)(C)C)cc21 [compound 813] | 0.1 |
| CC(=O)N[C@@H](Cc1ccc(F)c(F)c1F)[C@H](O)CN[C@H]1CC2(CCC2)Oc2ncc(CC(C)(C)C)cc21 [compound 814] | 0.0563 |
| CC(=O)N[C@@H](Cc1c(F)cc(F)cc1F)[C@H](O)CN[C@H]1CC2(CCC2)Oc2ncc(CC(C)C)cc21 [compound 815] | 0.224 |
| CC(=O)N[C@@H](Cc1ccc(F)c(F)c1F)[C@H](O)CN[C@H]1CC2(CCC2)Oc2ncc(CC(C)C)cc21 [compound 816] | 0.137 |
| CC(=O)N[C@@H](Cc1ccc(Cl)cc1)[C@H](O)CN[C@H]1CC2(CCCC2)Oc2ncc(CC(C)(C)C)cc21 [compound 817] | 0.132 |
| CC(=O)N[C@@H](Cc1ccc(F)cc1)[C@H](O)CN[C@H]1CC2(CCC2)Oc2ncc(Cc3ccccc3)cc21 [compound 818] | 1.8 |
| CC(=O)N[C@@H](Cc1ccccc1)[C@H](O)CN[C@H]1CC2(CCC2)Oc2ccc(CCCCCO)cc21 [compound 822] | 0.0662 |
| CC(=O)N[C@@H](Cc1ccccc1)[C@H](O)CN[C@H]1CC2(CCC2)Oc2ccc(OC(C)C)cc21 [compound 823, N-((2S,3R)-3-hydroxy-4-((S)-6-isopropoxy-2,2-spirocyclobutyl-chroman-4-ylamino)-1-phenylbutan-2-yl)acetamide] | 0.31 |
| CC(=O)N[C@@H](Cc1cccnc1)[C@H](O)CN[C@H]1CC2(CCC2)Oc2ncc(CC(C)(C)C)cc21 [compound 824, N-((1S,2R)-3-(((4′S)-6′-(2,2-dimethylpropyl)-3′,4′-dihydrospiro[cyclobutane-1,2′-pyrano[2,3-b]pyridin]-4′-yl)amino)-2-hydroxy-1-(3-pyridinylmethyl)propyl)acetamide] | 0.00232 |
| CC(=O)N[C@@H](Cc1cccc(F)c1F)[C@H](O)CN[C@H]1CC2(CCC2)Oc2ncc(CC(C)(C)C)cc21 [compound 825] | 0.00434 |
| CC(=O)N[C@@H](Cc1c(F)cccc1F)[C@H](O)CN[C@H]1CC2(CCC2)Oc2ncc(CC(C)(C)C)cc21 [compound 826] | 0.00693 |
| CC(=O)N[C@@H](Cc1cccc(F)c1)[C@H](O)CN[C@H]1CC2(CCC2)Oc2cnc(CC(C)(C)F)cc21 [compound 827] | 0.0258 |
| CC(=O)N[C@@H](Cc1ccc(Cl)cc1)[C@H](O)CN[C@H]1CC2(CCC2)Oc2ncc(CC(C)(C)F)cc21 [compound 828] | 0.0784 |
| CC(=O)N[C@@H](CC1CCCN(C)C1)[C@H](O)CN[C@H]1CC2(CCC2)Oc2ncc(CC(C)(C)C)cc21 (stereo partly drawn) [compound 829] | 2.63 |
| CC(=O)N[C@@H](Cc1cncc(F)c1)[C@H](O)CN[C@H]1CC2(CCC2)Oc2ncc(CC(C)(C)C)cc21 [compound 830, N-((1S,2R)-3-(((4′S)-6′-(2,2-dimethylpropyl)-3′,4′-dihydrospiro[cyclobutane-1,2′-pyrano[2,3-b]pyridin]-4′-yl)amino)-1-((5-fluoro-3-pyridinyl)methyl)-2-hydroxypropyl)acetamide] | 0.00183 |
| CC(=O)N[C@@H](Cc1cncc(F)c1)[C@@H](O)CN[C@H]1CC2(CCC2)Oc2ncc(CC(C)(C)C)cc21 [compound 831, N-((1S,2S)-3-(((4′S)-6′-(2,2-dimethylpropyl)-3′,4′-dihydrospiro[cyclobutane-1,2′-pyrano[2,3-b]pyridin]-4′-yl)amino)-1-((5-fluoro-3-pyridinyl)methyl)-2-hydroxypropyl)acetamide] | 0.167 |
| COc1ccc(C[C@H](NC(C)=O)[C@H](O)CN[C@H]2CC3(CCC3)Oc3ncc(CC(C)(C)C)cc32)cc1OC [compound 832] | 0.00928 |
| CC(=O)N[C@@H](Cc1cccc(F)c1F)[C@H](O)CN[C@H]1CC2(CCC2)Oc2ncc(CC(C)(C)F)cc21 [compound 833] | 0.031 |
| CC(=O)N[C@@H](Cc1ccc(F)c(Br)c1)[C@H](O)CN[C@H]1CC2(CCC2)Oc2ncc(CC(C)(C)F)cc21 [compound 834] | 0.00931 |
| CC(=O)N[C@@H](Cc1cc(F)cc(F)c1)[C@H](O)CN[C@H]1CC2(CCC2)Oc2ncc(CC(C)(C)F)cc21 [compound 835] | 0.00205 |
| CC(=O)N[C@@H](Cc1ccc(F)c(Cl)c1)[C@H](O)CN[C@H]1CC2(CCC2)Oc2ncc(CC(C)(C)F)cc21 [compound 836] | 0.0147 |
| CC(=O)N[C@@H](Cc1cc(F)cc(Cl)c1)[C@H](O)CN[C@H]1CC2(CCC2)Oc2ncc(CC(C)(C)F)cc21 [compound 837] | 0.00358 |
| CC(=O)N[C@@H](Cc1cccc(C(F)(F)F)c1)[C@H](O)CN[C@H]1CC2(CCC2)Oc2ncc(CC(C)(C)F)cc21 [compound 838] | 0.0133 |

| SMILES | IC50 [µM] |
| --- | --- |
| CC(=O)N[C@@H](Cc1ccc2c(c1)OCO2)[C@H](O)CN[C@H]1CC2(CCC2)Oc2ncc(CC(C)(C)C)cc21 [compound 839] | 0.00549 |
| CC(=O)N[C@@H](Cc1ccc2c(c1)OCO2)[C@H](O)CN[C@H]1CC2(CCC2)Oc2ncc(CC(C)(C)F)cc21 [compound 840] | 0.0277 |
| CC(=O)N[C@@H](Cc1ccccc1)[C@H](O)CN[C@H]1CC2(CCC2)Oc2ncc(CC(F)(F)F)cc21 [compound 841, N-((1S,2R)-2-hydroxy-1-(phenylmethyl)-3-(((4′S)-6′-(2,2,2-trifluoroethyl)-3′,4′-dihydrospiro[cyclobutane-1,2′-pyrano[2,3-b]pyridin]-4′-yl)amino)propyl)acetamide] | 0.0848 |
| CC(=O)N[C@@H](Cc1ccc(F)c(F)c1)[C@H](O)CN[C@H]1CC2(CCC2)Oc2ncc(CC(F)(F)F)cc21 [compound 842] | 0.106 |
| CC(=O)N[C@@H](Cc1cccc(F)c1)[C@H](O)CN[C@H]1CC2(CCC2)Oc2ncc(CC(C)C)cc21 [compound 844] | 0.00363 |
| CC(=O)N[C@@H](Cc1ccc(F)cc1)[C@H](O)CN[C@H]1CC2(CCC2)Oc2ncc(CC(C)C)cc21 [compound 845] | 0.0114 |
| CC(=O)N[C@@H](Cc1cc(F)cc(F)c1)[C@H](O)CN[C@H]1CC2(CCC2)Oc2ncc(CC(C)C)cc21 [compound 846] | 0.00172 |
| CC(=O)N[C@@H](Cc1cc(F)cc(Cl)c1)[C@H](O)CN[C@H]1CC2(CCC2)Oc2ncc(CC(C)C)cc21 [compound 847] | 0.00427 |
| CC(=O)N[C@@H](Cc1cccc(C(N)=O)c1)[C@H](O)CN[C@H]1CC2(CCC2)Oc2ncc(CC(C)C)cc21 [compound 848] | 0.0128 |
| CC(=O)N[C@@H](Cc1cccc(C#N)c1)[C@H](O)CN[C@H]1CC2(CCC2)Oc2ncc(CC(C)C)cc21 [compound 849] | 0.00126 |
| CC(=O)N[C@@H](Cc1cccc(F)c1F)[C@H](O)CN[C@H]1CC2(CCC2)Oc2ncc(CC(C)C)cc21 [compound 850] | 0.00868 |
| CC(=O)N[C@@H](Cc1ccc(F)c(F)c1)[C@H](O)CN[C@H]1CC2(CCC2)Oc2ncc(CC(C)C)cc21 [compound 851] | 0.00324 |
| CC(=O)N[C@@H](Cc1ccccc1)[C@H](O)CN[C@H]1CC2(CCC2)Oc2nc(F)c(CC(C)C)cc21 [compound 852] | 0.052 |
| CC(=O)N[C@@H](Cc1cc(F)cc(F)c1)[C@H](O)CN[C@H]1CC2(CCC2)Oc2nc(F)c(CC(C)C)cc21 [compound 853] | 0.0112 |
| CC(=O)N[C@@H](Cc1ccc(F)cc1)[C@H](O)CN[C@H]1CC2(CCC2)Oc2nc(F)c(CC(C)C)cc21 [compound 854] | 0.151 |
| CC(=O)N[C@@H](Cc1cccc(F)c1)[C@H](O)CN[C@H]1CC2(CCC2)Oc2nc(F)c(CC(C)C)cc21 [compound 855] | 0.0252 |
| CC(=O)N[C@@H](Cc1cccc(F)c1F)[C@H](O)CN[C@H]1CC2(CCC2)Oc2nc(F)c(CC(C)C)cc21 [compound 856] | 0.206 |
| CC(=O)N[C@@H](Cc1ccc(Cl)c(F)c1)[C@H](O)CN[C@H]1CC2(CCC2)Oc2ncc(CC(C)C)cc21 [compound 857] | 0.0262 |
| CC(=O)N[C@@H](Cc1ccc(Cl)cc1)[C@H](O)CN[C@H]1CC2(CCC2)Oc2ncc(CC(C)C)cc21 [compound 858] | 0.0527 |
| CC(=O)N[C@@H](Cc1ccc(F)cc1)[C@H](O)CN[C@H]1CC2(CCC2)Oc2ncc(C(F)C(C)C(F)(F)F)cc21 (stereo partly drawn) [compound 859] | 0.148 |
| CC(=O)N[C@@H](Cc1ccc(Cl)cc1)[C@H](O)CN[C@H]1CC2(CCC2)Oc2ncc(C(F)C(C)C(F)(F)F)cc21 (stereo partly drawn) [compound 860] | 0.452 |
| CC(=O)N[C@@H](Cc1cccc(F)c1)[C@H](O)CN[C@H]1CC2(CCC2)Oc2ncc(C(F)C(C)C(F)(F)F)cc21 (stereo partly drawn) [compound 861] | 0.0264 |
| CC(=O)N[C@@H](Cc1ccccc1)[C@H](O)CN[C@H]1CC2(CCC2)Oc2ncc(C(F)C(C)C(F)(F)F)cc21 (stereo partly drawn) [compound 862] | 0.0741 |
| CC(=O)N[C@@H](Cc1cccc(F)c1)[C@H](O)CN[C@H]1CC2(CCC2)Oc2ncc(C(O)C(C)C(F)(F)F)cc21 (stereo partly drawn) [compound 863] | 1.83 |
| CC(=O)N[C@@H](Cc1ccc(Cl)cc1)[C@H](O)CN[C@H]1CC2(CCC2)Oc2ncc(C(O)C(C)C(F)(F)F)cc21 (stereo partly drawn) [compound 864] | ≥ 10 |
| CC(=O)N[C@@H](Cc1ccccc1)[C@H](O)CN[C@H]1CC2(CCC2)Oc2ncc(C(O)C(C)C(F)(F)F)cc21 (stereo partly drawn) [compound 865] | 1.93 |
| CC(=O)N[C@H](Cc1cccc(Cl)c1F)[C@H](O)CN[C@H]1CC2(CCC2)Oc2ncc(CC(C)(C)C)cc21 [compound 866] | ≥ 10 |
